Data on 15 molecules can be found in patent publication US8664289B2, “Dye and coloring photosensitive composition” (Adeka Corporation, priority 2010, dated 2014).

Holding throughout (assay type): physicochemical
Series [1] is described as follows: Evaluation of heat resistance by TG-DTA. The settings on record: temperature at 10% weight loss. Here is the method:
Compounds Nos. 1 to 7, 16, 26, 43, 52 to 62, 65, 66, 69, 70 and 94 to 102 and Comparative Compounds Nos. 1 and 2 obtained above were analyzed by TG-DTA, and the melting points and temperatures at 10% weight loss were measured. The results are shown in [Table 6].

Series [2] in a line: Heat resistance of exposed coating film of coloring alkali-developable photosensitive composition. The settings on record: for Relative intensity After exposure: coating film after exposure (150 mJ/cm^2), before heating; for λmax: coating film of composition containing the compound, on glass; for Relative intensity 230° C., 30 min: exposed coating film after 230° C. The text has this: 30.33 g of ACA Z250 (manufactured by Daicel Cytec Company Ltd.) and 11.04 g of ARONIX M-450 (manufactured by Toagosei Co., Ltd.) as the component (B), 1.93 g of IRGACURE 907 (manufactured by BASF) as the component (C), 36.60 g of PGMEA and 20.08 g of cyclohexanone as the component (E), as well as 0.01 g of FZ2122 (manufactured by Dow Corning Toray Co., Ltd.) as other component were mixed and stirred until insoluble components were diminished to give Alkali-developable photosensitive composition No. 1.
1.90 g of dimethylacetamide was added to 0.10 g of Compound No. 1 obtained above as the component (A) and dissolved under stirring.
5.0 g of Alkali-developable photosensitive composition No. 1 obtained in Step 1 and 1.0 g of Dye liquid No. 1 obtained in Step 2 were mixed and stirred to homogeneous to give Coloring alkali-developable photosensitive composition No. 1 of the present invention.
Coloring alkali-developable photosensitive compositions Nos. 2 to 20 were obtained in a similar manner to that in Example 2-1, except that Compound No. 1 as the component (A) in Step 2 of Example 2-1 was changed to Compound No. 2, 3, 5, 6, 16, 53, 56, 57, 59, 60, 65, 66, 94 or 96 to 101 obtained above.
Comparative coloring alkali-developable photosensitive compositions Nos. 1 and 2 were obtained in a similar manner to that in Example 2-1, except that Compound No. 1 as the component (A) in Step 2 of Example 2-1 was changed to Comparative Compound No. 1 or 2.
The coloring alkali-developable photosensitive compositions obtained in Example 2 were each applied to a glass basal plate under a condition of 410 rpm×7 sec and dried (90° C., 90 sec) on a hot plate. The obtained coating film was exposed (150 mJ/cm^2) by using an ultrahigh pressure mercury lamp. The heat resistance of the exposed coating film was investigated under conditions of 180° C.×60 min and 230° C.×30 min. The results are shown in [Table 7].
Using the coloring alkali-developable photosensitive compositions obtained in Examples 2-2 to 2-20 and Comparative Examples 2-1 and 2-2, heat resistance was investigated in a similar manner to that in Evaluation Example 3. The results are shown in [Table 7].

Series [3] in a line: Solubility in PGMEA. As to conditions: concentration when PGMEA was added dropwise to 0.1 g of the compound under stirring and was dissolved completely. Here is the method: That the obtained solid was an intended product was confirmed by ^1H-NMR and IR. Furthermore, the solubility of the obtained compound was measured. The solubility was a concentration when PGMEA was added dropwise to 0.1 g of the compound under stirring and was dissolved completely. The results thereof are shown in [Table 1] to [Table 4].
That the obtained solid was an intended product was confirmed by ^1H-NMR and IR. Furthermore, the solubility of the obtained compound was measured. The solubility was a concentration when PGMEA was added to 0.1 g of the compound while stirring and was dissolved completely. The results thereof are shown in [Table 1] to [Table 4]

Series [4] can be described thus: Evaluation of absorption wavelength property in CHCl3 solution. On the set-up: ε: unit not given here. As to conditions: for ε: molar absorption coefficient. An excerpt: The absorption wavelength properties of Compounds Nos. 1 to 7, 16, 26, 43, 52 to 62, 65, 66, 69, 70 and 94 to 102 and Comparative Compounds Nos. 1 and 2 obtained above were each evaluated in a CHCl3 solution. The results are shown in [Table 5].

Take `CCN(CC)c1ccc(/C=C(\C#N)C(=O)OCC(CC)(COC(=O)/C(C#N)=C/c2ccc(N(CC)CC)cc2)COC(=O)/C(C#N)=C/c2ccc(N(CC)CC)cc2)cc1` [Compound No. 57]: the 10% weight loss in series [1] is 339 °C. In series [2], the “Relative intensity After exposure” value amounted to 100; the λmax turned out to be 430 nm; the “Relative intensity 230° C., 30 min” value amounted to 99.9. Also, the “Solubility (PGMEA)” value in series [3] was 1.0 or less wt %. In series [4], this molecule came in with a λmax of 437 nm and a ε of 152000.

In series [1], `CCN(CC)c1ccc(/C=C(\C#N)C(=O)OCCOC(=O)/C(C#N)=C/c2ccc(N(CC)CC)cc2)cc1` [Compound No. 1] registered a 10% weight loss of 318 °C. In series [2], the “Relative intensity After exposure” value was 100; the λmax was 418 nm; the “Relative intensity 230° C., 30 min” value is 99.4. The “Solubility (PGMEA)” value in series [3] is 0.5 wt %. For the same molecule, in series [4], the λmax was found to be 436 nm and the ε was determined as 107000.

In series [1], `C=C(C)C(=O)OCCN(C)c1ccc(/C=C(\C#N)C(=O)OCCCCCCOC(=O)/C(C#N)=C/c2ccc(N(C)CCOC(=O)C(=C)C)cc2)cc1` [Compound No. 66] had a 10% weight loss of 354 °C. Further, in series [2], the “Relative intensity After exposure” value was 100; the λmax is given as 419 nm; the “Relative intensity 230° C., 30 min” value is 99.2. Also, the “Solubility (PGMEA)” value in series [3] is given as 1.0 or less wt %. In series [4], the λmax is reported as 419 nm and the ε came out at 94100.

Take `CCN(CC)c1ccc(/C=C(\C#N)C(=O)OCCCOC(=O)/C(C#N)=C/c2ccc(N(CC)CC)cc2)cc1` [Compound No. 3]: the 10% weight loss in series [1] is 329 °C. Further, in series [2], the “Relative intensity After exposure” value is listed as 100; the λmax came out at 433 nm; the “Relative intensity 230° C., 30 min” value was found to be 99.4. For the same molecule, the “Solubility (PGMEA)” value in series [3] is 0.4 wt %. In series [4], this molecule gave a λmax of 435 nm and a ε of 104000.

`CCN(CC)c1ccc(/C=C(\C#N)C(=O)OCC(C)(COC(=O)/C(C#N)=C/c2ccc(N(CC)CC)cc2)COC(=O)/C(C#N)=C/c2ccc(N(c3ccccc3)c3ccccc3)cc2)cc1` (stereo not drawn) [Compound No. 96] came in with a 10% weight loss in series [1] of 347 °C. Also, in series [2], the “Relative intensity After exposure” value worked out at 100; the λmax turned out to be 433 nm; the “Relative intensity 230° C., 30 min” value was 99.5. In series [3], the “Solubility (PGMEA)” value amounted to 10.0 wt %. In series [4], this molecule had a λmax of 437 nm and a ε of 138000.

`CCN(CC)c1ccc(/C=C(\C#N)C(=O)Oc2ccc(C(C)(C)c3ccc(OC(=O)/C(C#N)=C/c4ccc(N(CC)CC)cc4)cc3)cc2)cc1` [Compound No. 6] came in with a 10% weight loss in series [1] of 322 °C. In series [2], the “Relative intensity After exposure” value was found to be 100; the λmax is given as 442 nm; the “Relative intensity 230° C., 30 min” value was 99.9. The “Solubility (PGMEA)” value in series [3] is reported as 0.9 wt %. In series [4], this molecule registered a λmax of 440 nm and a ε of 132000.

`N#C/C(=C\c1ccc(N2CCOCC2)cc1)C(=O)OCCCCCCCOC(=O)/C(C#N)=C/c1ccc(N2CCOCC2)cc1` [Compound No. 60] came in with a 10% weight loss in series [1] of 350 °C. Moreover, in series [2], the “Relative intensity After exposure” value is recorded as 100; the λmax was determined as 408 nm; the “Relative intensity 230° C., 30 min” value was determined as 73.8. For the same molecule, the “Solubility (PGMEA)” value in series [3] is 1.0 or less wt %. In series [4], this molecule came in with a λmax of 405 nm and a ε of 71700.

`CCN(CC)c1ccc(/C=C(\C#N)C(=O)OCC(C)OC(=O)/C(C#N)=C/c2ccc(N(CC)CC)cc2)cc1` (stereo not drawn) [Compound No. 2]: in series [1], the 10% weight loss was 312 °C. In addition, in series [2], the “Relative intensity After exposure” value turned out to be 100; the λmax amounted to 430 nm; the “Relative intensity 230° C., 30 min” value came out at 99.3. Further, in series [3], the “Solubility (PGMEA)” value worked out at 4.0 wt %. In series [4], the λmax came to 434 nm and the ε came out at 100000.

`CCN(CC)c1ccc(/C=C(\C#N)C(=O)OCCCCCCCOC(=O)/C(C#N)=C/c2ccc(N(CC)CC)cc2)cc1` [Compound No. 5]: the 10% weight loss in series [1] amounted to 348 °C. Further, in series [2], the “Relative intensity After exposure” value came out at 100; the λmax is on record as 431 nm; the “Relative intensity 230° C., 30 min” value is recorded as 99.5. In addition, in series [3], the “Solubility (PGMEA)” value is on record as 2.0 wt %. Also, in series [4], the λmax is 430 nm and the ε stood at 110000.

`CCN(CC)c1ccc(/C=C(\C#N)C(=O)OCC(C)(COC(=O)/C(C#N)=C/c2ccc(N3CCOCC3)cc2)COC(=O)/C(C#N)=C/c2ccc(N3CCOCC3)cc2)cc1` [Compound No. 97]: the 10% weight loss in series [1] is 334 °C. In series [2], the “Relative intensity After exposure” value amounted to 100; the λmax is on record as 417 nm; the “Relative intensity 230° C., 30 min” value worked out at 98.2. Besides, in series [3], the “Solubility (PGMEA)” value was found to be 10.0 wt %. Further, in series [4], the λmax was 417 nm and the ε stood at 103000.

`N#C/C(=C\c1ccc(N(c2ccccc2)c2ccccc2)cc1)C(=O)OCCCCCCCOC(=O)/C(C#N)=C/c1ccc(N(c2ccccc2)c2ccccc2)cc1` [Compound No. 65]: the 10% weight loss in series [1] was found to be 354 °C. Further, in series [2], the “Relative intensity After exposure” value is reported as 100; the λmax worked out at 430 nm; the “Relative intensity 230° C., 30 min” value amounted to 99.3. Moreover, in series [3], the “Solubility (PGMEA)” value is 5.3 wt %. For the same molecule, in series [4], the λmax came to 435 nm and the ε came to 65300.

In series [1], `CN(CCO)c1ccc(/C=C(\C#N)C(=O)OCC(C)(COC(=O)/C(C#N)=C/c2ccc(N(C)CCO)cc2)COC(=O)/C(C#N)=C/c2ccc(N(C)CCO)cc2)cc1` [Compound No. 98] had a 10% weight loss of 288 °C. In series [2], the “Relative intensity After exposure” value is 100; the λmax is recorded as 431 nm; the “Relative intensity 230° C., 30 min” value came to 99.5. Also, the “Solubility (PGMEA)” value in series [3] is on record as 1.0 or less wt %. In series [4], this molecule came in with a λmax of 428 nm and a ε of 119000.

`CC(COC(=O)/C(C#N)=C/c1ccc(N(Cc2ccccc2)Cc2ccccc2)cc1)(COC(=O)/C(C#N)=C/c1ccc(N(Cc2ccccc2)Cc2ccccc2)cc1)COC(=O)/C(C#N)=C/c1ccc(N(Cc2ccccc2)Cc2ccccc2)cc1` [Compound No. 101] showed a 10% weight loss in series [1] of 336 °C. Further, in series [2], the “Relative intensity After exposure” value was determined as 100; the λmax was 426 nm; the “Relative intensity 230° C., 30 min” value was determined as 99.4. Further, the “Solubility (PGMEA)” value in series [3] is reported as 10.0 wt %. In series [4], this molecule gave a λmax of 425 nm and a ε of 153000.

The molecule `CN(CCO)c1ccc(/C=C(\C#N)C(=O)OCCCCCCOC(=O)/C(C#N)=C/c2ccc(N(C)CCO)cc2)cc1` [Compound No. 59] registered a 10% weight loss in series [1] of 295 °C. In series [2], the “Relative intensity After exposure” value was 100; the λmax is recorded as 431 nm; the “Relative intensity 230° C., 30 min” value amounted to 99.7. In series [3], the “Solubility (PGMEA)” value is given as 1.0 or less wt %. In series [4], this molecule displayed a λmax of 420 nm and a ε of 89900.

Molecule `CCN(CC)c1ccc(/C=C(\C#N)C(=O)OCC(COC(=O)/C(C#N)=C/c2ccc(N(CC)CC)cc2)(COC(=O)/C(C#N)=C/c2ccc(N(CC)CC)cc2)COC(=O)/C(C#N)=C/c2ccc(N(CC)CC)cc2)cc1` [Compound No. 16] showed a 10% weight loss in series [1] of 328 °C. In series [2], the “Relative intensity After exposure” value is recorded as 100; the λmax amounted to 438 nm; the “Relative intensity 230° C., 30 min” value is 99.7. In series [3], the “Solubility (PGMEA)” value is recorded as 1.8 wt %. In series [4], this molecule had a λmax of 439 nm and a ε of 210000.
